Test results taken from paper PMC11558822, “Myc 9aaTAD activation domain binds to mediator of transcription with superior high affinity” (Molecular Medicine, 2024).
Residues, ends and D or L forms follow the SMILES beside them. No end group written: not given here. *: point of attachment. Biotin = O=C1N[C@H]2[C@H](CS[C@H]2CCCCC(=O)*)N1

Columns and labels:
[1] = target: T1, KIX domain of CBP (Homo sapiens, UniProt Q92793); experiment: Bio-layer interferometry (BLI) of immobilized 9aaTAD peptides with KIX domain; assay type: binding; conditions: for Kd: BLI Octet RED96e, biotinylated peptide on streptavidin SA biosensors, KIX 0.31-5.0 μM, 20 mM sodium phosphate pH 6.0, 50 mM NaCl, 30 °C, steady-state 1:1 fit, average of pentaplicate, read-out: KD(apparent)
T1 construct: GST (N, cleaved yes); His6 (N, cleaved yes); made in house
Method: Bio-layer interferometry on Octet RED96e (ForteBio) was used for the analysis of interaction between KIX domain and proposed activation domains. All experiments were performed at 30 °C at 1000 rpm shaking. Streptavidin-bearing SA biosensors (ForteBio) were immersed for 300 s into the assay buffer (20 mM sodium phosphate pH 6.0, 50 mM NaCl) containing 60 μM biotinylated MLL, MYC or NMY peptide, respectively. After subsequent wash in the assay buffer, the final steady response of ligand reached 0.6–0.8 nm. Parallel blank sensor was treated the same way with pure assay buffer being used instead of biotinylated peptide solution in the immobilization step. For the binding assay, all sensors were used in parallel applying the following procedure: 120 s baseline in the assay buffer, 180 s association in the assay buffer containing increasing concentration of KIX domain for each cycle (0.31, 0.63, 1.25, 2.5 and 5.0 μM), 240 s dissociation in the assay buffer and 3 repetitions of 30 s regeneration in 50 mM NaOH followed by 30 s assay buffer wash. Each binding experiment was performed in pentaplicate and the data were processed using Data Analysis 11.1 evaluation SW (ForteBio). Obtained binding curves were blank-subtracted and fitted by a 1:1 binding model using steady state analysis. Final KD (apparent) values were calculated as an average of all measurements.

[2] = test system: lacZ reporter driven by the lexA operator; experiment: One hybrid transactivation (β-galactosidase reporter) assay with LexA hybrids in yeast strain L40; assay type: cell-based, Saccharomyces cerevisiae; conditions: for ß-Gal: raw β-galactosidase activity; for Reporter activation (average value in %): β-galactosidase activity of LexA hybrid, % of positive control p53 construct 6p53 set to 100%, mean ± SD, n = 3; for normalized value in %: β-galactosidase, % of 6p53 mean; for activation function (times): one hybrid assay, presence versus absence of 9aaTAD (region 100–108) in the construct
[3] = replicate 1 (first sample of the construct)
[4] = replicate 2 (second sample of the construct)
[5] = replicate 3 (third sample of the construct)

T1 sequence (Q92793 587-666 limits assumed): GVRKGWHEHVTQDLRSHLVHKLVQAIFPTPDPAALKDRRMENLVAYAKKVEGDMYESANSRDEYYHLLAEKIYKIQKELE

| Binding to KIX ([1]; BLI, KIX in the 3–16 μM range, negative control) | Molecule | Kd [1] [nM] | ß-Gal [2, 3] | ß-Gal [2, 4] | ß-Gal [2, 5] | Reporter activation (average value in %) [2] [%] | normalized value in % [2, 3] [%] | normalized value in % [2, 4] [%] | normalized value in % [2, 5] [%] | activation function (times) [2] [times] |
| --- | --- | --- | --- | --- | --- | --- | --- | --- | --- | --- |
| – | CC[C@H](C)[C@H](NC(=O)[C@H](CC(=O)O)NC(=O)[C@H](CO)NC(=O)[C@@H]1CCCN1C(=O)[C@H](CC(C)C)NC(=O)[C@@H](NC(=O)[C@H](CC(N)=O)NC(=O)[C@H](CO)NC(=O)CNC(=O)CCCC[C@@H]1SC[C@@H]2NC(=O)N[C@@H]21)[C@@H](C)CC)C(=O)N[C@@H](CCSC)C(=O)N[C@@H](CC(=O)O)C(=O)N[C@@H](Cc1ccccc1)C(=O)N[C@H](C(=O)N[C@@H](CC(C)C)C(=O)N[C@@H](CCCCN)C(=O)N[C@@H](CC(N)=O)C(=O)N[C@H](C(=O)O)[C@@H](C)O)C(C)C [MLL, reference compound] (Biotin-GSNILPSDIMDFVLKNT-OH) | 1170 ± 210 | – | – | – | – | – | – | – | – |
| – | CSCC[C@H](NC(=O)[C@H](CCC(=O)O)NC(=O)[C@@H](NC(=O)[C@@H](NC(=O)[C@H](Cc1c[nH]c2ccccc12)NC(=O)[C@H](CO)NC(=O)[C@@H]1CCCN1C(=O)[C@@H]1CCCN1C(=O)[C@H](CCC(=O)O)NC(=O)[C@H](CO)NC(=O)[C@H](CO)NC(=O)[C@H](CO)NC(=O)CNC(=O)CCCC[C@@H]1SC[C@@H]2NC(=O)N[C@@H]21)C(C)C)[C@@H](C)O)C(=O)N[C@@H](CC(C)C)C(=O)N[C@@H](CC(C)C)C(=O)N[C@@H](CCC(=O)O)C(=O)N[C@@H](CC(N)=O)C(=O)O [N-Myc] (Biotin-GSSSEPPSWVTEMLLEN-OH) | 880 ± 110 | – | – | – | – | – | – | – | – |
| – | CC(C)C[C@H](NC(=O)[C@H](CC(=O)O)NC(=O)[C@H](CC(=O)O)NC(=O)[C@H](CC(C)C)NC(=O)[C@H](CC(=O)O)NC(=O)[C@H](CC(C)C)NC(=O)[C@@H](NC(=O)[C@H](CC(=O)O)NC(=O)[C@H](Cc1c[nH]c2ccccc12)NC(=O)[C@H](CO)NC(=O)[C@@H](NC(=O)[C@H](CC(=O)O)NC(=O)CNC(=O)[C@H](CO)NC(=O)[C@H](CO)NC(=O)CNC(=O)CCCC[C@@H]1SC[C@@H]2NC(=O)N[C@@H]21)C(C)C)[C@@H](C)O)C(=O)N[C@@H](CC(=O)O)C(=O)O [Sp1-Ac] (Biotin-GSSGDVSWDTLDLDDLD-OH) | 9770 ± 1570 | – | – | – | – | – | – | – | – |
| – | CSCC[C@H](NC(=O)[C@H](CCC(=O)O)NC(=O)[C@H](CC(C)C)NC(=O)[C@H](CCC(N)=O)NC(=O)[C@@H](NC(=O)[C@H](CO)NC(=O)[C@H](CO)NC(=O)[C@H](CO)NC(=O)CNC(=O)CCCC[C@@H]1SC[C@@H]2NC(=O)N[C@@H]21)[C@@H](C)O)C(=O)N[C@H](C(=O)N[C@H](C(=O)N[C@@H](CCC(=O)O)C(=O)N[C@@H](CC(C)C)C(=O)N[C@@H](CC(C)C)C(=O)NCC(=O)O)[C@@H](C)O)C(C)C [c-Myc] (Biotin-GSSSTQLEMVTELLG-OH) | 2160 ± 1170 | – | – | – | – | – | – | – | – |
| did not bind | Biotin—GSS- GQ VSWQ T LQLQ NLQ [native Sp1, biotinylated native Sp1 9aaTAD peptide, negative control for BLI, reference compound] | – | – | – | – | – | – | – | – | – |
| – | c-Myc region 69-103: LexA hybrid construct of c-Myc region 69–103 without 9aaTAD (ELLPTPPLSPSRRSGLCSPSYVAVTPFSLRGDNDG; LexA fusion; UniProt P01106 69-103, looked up, fragment) | – | 74 | 83 | 71 | 29 | 27 | 31 | 26 | – |
| – | c-Myc region 69-108: LexA hybrid construct of c-Myc region 69–108 with 9aaTAD (ELLPTPPLSPSRRSGLCSPSYVAVTPFSLRGDNDGGGGSF; LexA fusion; UniProt P01106 69-108, looked up, fragment) | – | 255 | 241 | 242 | 90 | 93 | 88 | 89 | 3 |
| – | c-Myc region 98-108: LexA hybrid construct of alone-standing c-Myc 9aaTAD activation domain (RGDNDGGGGSF; also: LexA fusion; UniProt P01106 98-108, looked up, fragment) | – | 191 | 185 | 169 | 67 | 70 | 68 | 62 | 67 |
